Source: patent publication US11352400B2, “PI3K gamma inhibitor peptide for treatment of respiratory system diseases” (Kither Biotech S.r.I., priority 2014, dated 2022)

Tests used:
[1] = target: T1, association of PI3Kγ with PKA RII (Homo sapiens, UniProt P13861); settings: in vitro, previous study (1); cited from earlier work
T1 construct: the regulatory subunit of PKA (PKA RII) was immunoprecipitated by incubating the protein extract; expressed in transfected cells; host or cells: HEK293 (ATCC CRL-1573) transfected with pcDNA3.1-PI3Kγ; PKA RII endogenous

[2] = test system: PI3Kγ-bound phosphodiesterase 3B; settings: in vitro, previous study (1); cited from earlier work
[3] = test system: hBSMCs; assay: Measurements of calcium transients (Indo-1) in hBSMCs; format: cell-based, human; settings: 50 μM, 30 minutes, 40 mM KCl depolarizing solution
Experimental: Cells were washed with a Tyrode solution containing (in mmol/L): 5 HEPES, 154 NaCl, 4 KCl, 2 CaCl2, 1 MgCl2, 5.5 D-glucose, at pH 7.35 and placed on an inverted microscope. Cells were kept in Tyrode solution and treated with a KCl depolarizing solution containing (in mmol/L): 5 HEPES, 118 NaCl, 40 KCl, 2 CaCl2, 1 MgCl2, 5.5 D-glucose, at pH 7.35. Calcium transients were analyzed as the ratio of fluorescence signals measured at 400 nm and 490 nm following excitation of Indo-1-AM-loaded cells at 350 nm. Experiments were recorded and analyzed with Igor® Software, using the functions added by Jason Rothman (Neuromatic, www.thinkrandom.com).

[4] = test system: β2-AR/cAMP signaling; assay: FRET imaging of cAMP (ICUE3 probe) in hBSMCs after β2-AR stimulation; format: cell-based, human; settings: hBSMCs pre-treated 50 μM, 30 minutes; ISO 100 nM + CGP-20712A 100 nM
Experimental: Human bronchial smooth muscle cells (hBSMCs) were transfected with a plasmid encoding the FRET probe for cAMP, ICUE3 (described in the U.S. Pat. No. 8,236,523 B2) (2), by electroporation with a Nucleofector device (AMAXA, Gaithersburg, Md.), according to the manufacturer's protocol. Briefly, 1×10^6 cells were re-suspended in 100 μL of nucleofection solution (VPI-1004, AMAXA, Gaithersburg, Md.), mixed with 1 μg of pcDNA3-ICUE3 (described in U.S. Pat. No. 8,236,523 B2), and subjected to electroporation in a nucleofection apparatus of Amaxa Biosystems (Program A-033). Live cell imaging experiments were performed at 24 hours after transfection.
Measurements of cAMP levels were performed on human bronchial smooth muscle cells (hBSMCs) that express the FRET probe ICUE3, as described previously (2). Briefly, cells were maintained in a K^+-Ringer solution containing (in mmol/L) 121.6 NaCl, 5.4 KCl, 1.8 MgCl2, 1.8 CaCl2, 4 NaHCO3, 0.8 NaH2PO4, 5 D-glucose, 5 sodium pyruvate, 10 HEPES, at pH 7.4. […] FRET efficiency was calculated using the “Method 3” provided by the Leica wizard application for FRET imaging and sensitized emission, according to which: EA(i)=B/A, where EA(i) is the apparent FRET efficiency; A and B are the intensities of the CFP channel and FRET, respectively. […]

[5] = test system: ΔF508-CFTR; assay: Chloride currents in Ussing chamber, CuFi-1 cells; format: cell-based, human; settings: CuFi-1 cells corrected with VX-809 (20 μM, 24 hours); P1 10 μM, VX-770 10 μM
Experimental: (§1) Human airway epithelial cell lines expressing a wild-type CFTR (NuLi-1) or with the ΔF508 mutation (CuFi-1) were purchased from ATCC (NuLi-1 product code: ATCC® CRL-4011™; CuFi-1 product code: ATCC® CRL-4013™). Cells were cultured in Dulbecco's Modified Eagle Medium (DMEM, Gibco, Carlsbad, Calif.) supplemented with 10% fetal bovine serum (FBS), 30 μg/mL of penicillin, 100 μg/mL of streptomycin and 300 μg/mL hygromycin B (Gibco, Carlsbad, Calif.).
(§2) To measure chloride currents in normal and ΔF508 primary human bronchial epithelial cells, cells were cultured on 1.12 cm^2 Snapwell inserts. Filters were mounted in Ussing chambers, and a chloride gradient was applied by incubating the cells in a basolateral high-chloride buffer containing (in mmol/L): 140 NaCl, 5 KCl, 0.36 K2HPO4, 0.44 KH2PO4, 1.3 CaCl2, 0.5 MgCl2, 4.2 NaHCO3, 10 HEPES, and 10 glucose, at pH 7.4 and an apical low-chloride buffer containing (in mmol/L): 133.3 Na-gluconate, 5 K-gluconate, 2.5 NaCl, 0.36 K2HPO4, 0.44 KH2PO4, 5.7 CaCl2, 0.5 MgCl2, 4.2 NaHCO3, 10 HEPES, and 10 mannitol, at pH 7.4. Buffers were aerated with a mixture of 95% O2 and 5% CO2 and the temperature was maintained at 37° C. during the experiment. […] After a stabilization period of 30 minutes, drugs were added at specific times, while the current was continuously recorded.

[6] = test system: wild-type CFTR; assay: Chloride currents in Ussing chamber, NuLi-1 cells; format: cell-based, human; settings: peptide 10-30 μM, P1 30 μM
Experimental: as §1, §2

T1 sequence (P13861 whole entry): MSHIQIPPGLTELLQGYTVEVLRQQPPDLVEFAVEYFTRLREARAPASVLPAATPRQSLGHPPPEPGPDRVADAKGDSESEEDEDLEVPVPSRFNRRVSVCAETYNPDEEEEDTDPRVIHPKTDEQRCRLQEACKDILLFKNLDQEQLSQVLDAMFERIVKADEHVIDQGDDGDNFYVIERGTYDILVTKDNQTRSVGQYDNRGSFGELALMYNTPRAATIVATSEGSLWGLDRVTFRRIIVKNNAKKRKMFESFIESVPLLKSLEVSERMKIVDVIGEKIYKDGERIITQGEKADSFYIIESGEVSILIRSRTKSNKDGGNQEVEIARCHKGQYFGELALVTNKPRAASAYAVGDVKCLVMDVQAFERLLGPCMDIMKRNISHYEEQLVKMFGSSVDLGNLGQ

| Sequence | PKA anchoring (PI3Kγ-PKA interaction) [1] | activity of PI3Kγ-bound phosphodiesterase 3B [2] | influx of Ca2+ induced by KCl (through VOCCs) [3] | increase of cAMP accumulation following stimulation of β2-ARs [4] | CFTR activity in the presence of VX-770 [5] | CFTR-dependent Cl− currents [6] |
| --- | --- | --- | --- | --- | --- | --- |
| KATHRSPGQIHLVQRHPPSEESQAF (homo sapiens) [SEQ ID No.: 1] | inhibits | decreases | – | – | – | – |
| RQIKIWFQNRRMKWKK (Antennapedia penetratin 1) [P1 control peptide, cell-penetrating Penetratin 1 of Antennapedia, used as control peptide, reference compound] | – | – | unchanged | unchanged | did not change | did not change |
